# Measured values reported in patent US20230149428A1, “METHOD OF TREATING GENE THERAPY ASSOCIATED TOXICITY WITH ANTIBIOTICS” (Asklepios BioPharmaceutical, Inc., priority 2020, published 2023).
# How the values were obtained:
# [1] = system: IL-8 levels and neutrophil accumulation and activation; settings: refractory asthma patients; Simpson et al. 2008; cited from earlier work
# [2] = system: Th1- and Th2-related chemokines; settings: upon stimulation; Kuo et al. 2019; cited from earlier work
# [3] = system: liver transaminases AST and ALT; test: Liver transaminases AST/ALT after rAAV-Luc, tapering prednisone and tetracycline (Example 3); type: in vivo, piglets; settings: tetracycline 5-50 mg/kg/day, alone or with tapering prednisone from 25 mg/kg
# Method: The effect of antibiotic treatment on rAAV particle-induced toxicity is examined by measuring levels of endogenous cytokines and liver transaminases e.g., AST and ALT in animals injected with rAAV-Luc particles operably encoding luciferase nucleic acid.
# Female piglets (n=5) are pretreated with 25 mg/kg/day prednisolone 24 hours prior to rAAV8-luc (2×10^12 particles of rAAV-Luc particles) administration and then continued for 4 weeks. Then each week the prednisone is tapered by 5 mg/kg until no prednisone and continued for 15 weeks post AAV administration (2×10^12 particles per piglet). Tetracycline is then administered at 15 mg/kg/day for 16-24 weeks. Small amounts of blood are collected aseptically obtained through the jugular vein at 2 hrs, 4 hrs, 1 day, 3 days, 10 days, 21 days, 4 weeks, 8 weeks, 15 weeks, 24 weeks post-rAAV-Luc treatment, post-rAAV-Luc treatment, and serum is isolated.
# [4] = system: IL-2, IL-6, IL-7, IL-10, MCP-I, IFNγ, IP-10 and MIG; test: Serum inflammatory cytokine profile after rAAV-Luc, tetracycline pretreatment (Example 2); type: in vivo, piglets
# Method: (§1) The effect of antibiotic pretreatment on the rAAV particle-induced toxicity e.g., inflammatory response and liver enzyme levels (e.g., toxicity) is examined by measuring levels of endogenous cytokines and liver enzymes AST and ALT in animals injected with rAAV8-Luc particles operably encoding luciferase nucleic acid.
# (§2) Female piglets (n=5) are injected intravenously with either PBS alone (antibiotic control) or 25 mg/kg/day tetracycline in PBS 4 hours prior to intravenous administration of PBS alone (viral control) or 2×10^12 particles of rAAV-Luc vector. Small amounts of blood are collected aseptically obtained through the jugular vein at 30 minutes, 60 minutes, 90 minutes, 120 minutes, 1 day, 3 days, 10 days, 21 days, 28 days, 42 days, 60 days post-rAAV-Luc treatment, and serum is isolated. The serum is then analyzed for an inflammatory cytokine profile using the BD™ Cytometric Bead Array Mouse Inflammation Kit (BD™ CBA Mouse Inflammation Kit, BD Biosciences), specifically measuring levels of IL-2, IL-6, IL-7, IL-10, MCP-I, IFNγ, IP-10 and MIG. Liver transaminases e.g., AST and ALT are also measured at the above mentioned timepoints.
# [5] = system: liver enzymes AST and ALT; test: Liver transaminases AST/ALT after rAAV-Luc, tetracycline pretreatment (Example 2); type: in vivo, piglets; settings: 25 mg/kg/day tetracycline i.v. 4 hours prior to 2×10^12 particles rAAV-Luc
# Method: as §1, §2
smiles,measurement,setting,value
"CC[C@H]1OC(=O)[C@H](C)[C@@H](O[C@H]2C[C@@](C)(OC)[C@@H](O)[C@H](C)O2)[C@H](C)[C@@H](O[C@@H]2O[C@H](C)C[C@H](N(C)C)[C@H]2O)[C@](C)(OC)C[C@@H](C)C(=O)[C@H](C)[C@@H](O)[C@]1(C)O [clarithromycin, Clarithromycin]",effect on IL-8 levels and neutrophil accumulation and activation,[1],modulate IL-8 levels and Neutophil accumulation and activation
CC[C@H]1OC(=O)[C@H](C)[C@@H](O[C@H]2C[C@@](C)(OC)[C@@H](O)[C@H](C)O2)[C@H](C)[C@@H](O[C@@H]2O[C@H](C)C[C@H](N(C)C)[C@H]2O)[C@](C)(O)C[C@@H](C)CN(C)[C@H](C)[C@@H](O)[C@]1(C)O [Azithromycin],effect on Th1- and Th2-related chemokines,[2],suppress Th1- and Th2-related chemokines
"CN(C)[C@@H]1C(O)=C(C(N)=O)C(=O)[C@@]2(O)C(O)=C3C(=O)c4c(O)cccc4[C@@](C)(O)[C@H]3C[C@@H]12 [tetracycline, Tetracycline]",AST/ALT levels vs control piglets,[3],decreased significantly
same,inflammatory response (cytokine levels) resulting from rAAV-Luc vs antibiotic control,[4]; 25 mg/kg/day tetracycline i.v. 4 hours prior to 2×10^12 particles rAAV-Luc i.v.,significantly reduce
same,"inflammatory response, tetracycline followed by PBS alone","[4]; 25 mg/kg/day tetracycline i.v., no vector",no inflammatory response
same,AST/ALT ratio with time,[5],less than 1
